Laboratory results: patent US20100311803A1, “METHOD FOR REDUCING INFLAMMATORY RESPONSES AND INFLAMMATION” (Adelaide Research & Innovation Pty Ltd, priority 2006, published 2010)

Key:
IL-6 mRNA = IL-6 mRNA expression in brain tissue after brain injury (RT-PCR); assay type: in vivo, rat; details: 10^−5 mol/kg i.v. 30 minutes after injury; brain tissue at 6 hours after injury; normalised to rpL32 (FIG. 3)
Description: (§1) In order to examine the effects on the cellular inflammatory response, N-acetyl-L-tryptophan was administered intravenously at a dose of 10^−5 mol/kg after injury. The expression of mRNA for the inflammatory cytokines IL-1β, IL-6 and TNFα in brain tissue was determined by reverse transcription followed by a polymerase chain reaction (RT-PCR). mRNA levels were normalised with respect to expression of rpL32. Brain tissue samples were collected at 6 hours after injury. Levels of expression of mRNA for the inflammatory cytokines were compared in non-injured animals (sham), injured animals administered drug vehicle alone (control), and injured animals administered a substance P receptor antagonist (NK1). mRNA expression was determined for IL-1β (FIG. 2), IL-6 (FIG. 3) and TNFα (FIG. 4).

TNFα mRNA = TNFα mRNA expression in brain tissue after brain injury (RT-PCR); assay type: in vivo, rat; details: 10^−5 mol/kg i.v. 30 minutes after injury; brain tissue at 6 hours after injury; normalised to rpL32 (FIG. 4)
Description: as §1

serum interleukin 6 = assay: Serum IL-6 levels (ELISA) after systemic insult (trauma; trauma plus hypoxia and hypotension); assay type: in vivo, rat; details: 10^−5 mol/kg i.v. 30 minutes after the insult
Description: A whole variety of severe insults are capable of triggering a systemic inflammatory response, and subsequent shock reaction. Two approaches were used in these studies, namely trauma (diffuse axonal injury), and an extended period of hypoxia and hypotension. N-acetyl-L-tryptophan was administered intravenously 30 minutes after the insult, whilst control animals received drug vehicle alone. A systemic inflammatory response, generated as a result of these triggers, was determined by a rise in serum interleukin 6 levels. Blood samples were collected at 6 hours after the insult. Changes in serum IL-6 levels were quantified using an enzyme-linked immunosorbent assay (ELISA). In order to examine the effects of an NK1 antagonist on the systemic inflammatory response, N-acetyl-L-tryptophan was administered intravenously at a dose of 10^−5 mol/kg 30 minutes after the insult. Serum levels of IL-6 were compared between animals that were not subject to any insult (sham), animals subject to an insult and then administered drug vehicle alone (control), and animals subject to an insult and administered a substance P receptor antagonist (NK1). IL-6 levels were determined following trauma (FIG. 5), and trauma followed by 15 minutes of hypoxia and hypotension (FIG. 6).

[1] = Evan's blue leakage into brain tissue (blood brain barrier) after diffuse axonal brain injury; assay type: in vivo; details: rat diffuse axonal injury
Description: (§2) We chose to use the compound N-acetyl-L-tryptophan. To induce a primary brain injury a rat model of diffuse axonal injury was used (Heath D L and Vink R (1997). Magnesium sulphate improves neurologic outcome following severe closed head injury in rats. Neurosci Lett; 228: 175-8). N-acetyl-L-tryptophan was then administered intravenously 30 minutes after injury, whilst control animals received drug vehicle alone.

[2] = Functional outcome and mortality of brain-injured animals; assay type: in vivo, rat; details: brain injury; administered after injury
Description: as §2
In order to examine the effects on the cellular inflammatory response, N-acetyl-L-tryptophan was administered intravenously at a dose of 10^−5 mol/kg after injury.

[3] = Functional outcome and recovery after trauma or trauma plus hypoxia and hypotension; assay type: in vivo, rat; details: either trauma, or trauma plus hypoxia and hypotension
Description: A whole variety of severe insults are capable of triggering a systemic inflammatory response, and subsequent shock reaction. Two approaches were used in these studies, namely trauma (diffuse axonal injury), and an extended period of hypoxia and hypotension. N-acetyl-L-tryptophan was administered intravenously 30 minutes after the insult, whilst control animals received drug vehicle alone. […] This level of recovery was never seen in the non-treated animals.

IL-1β mRNA = IL-1β mRNA expression in brain tissue after brain injury (RT-PCR); assay type: in vivo, rat; details: 10^−5 mol/kg i.v. 30 minutes after injury; brain tissue at 6 hours after injury; normalised to rpL32 (FIG. 2)
Description: as §1

CC(=O)N[C@@H](Cc1c[nH]c2ccccc12)C(=O)O [N-acetyl-L-tryptophan]
expression of IL-6 mRNA in brain tissue with respect to non-injured animals (IL-6 mRNA): no significant differences | expression of TNFα mRNA in brain tissue with respect to non-injured animals (TNFα mRNA): no significant differences | serum IL-6 levels with respect to sham animals (serum interleukin 6; trauma (diffuse axonal injury), blood at 6 hours (FIG. 5)): no significant differences | serum IL-6 levels with respect to sham animals (serum interleukin 6; trauma followed by 15 minutes of hypoxia and hypotension, blood at 6 hours (FIG. 6)): no significant differences | closure of the blood-brain barrier, dependence on dose ([1]; intravenously 30 minutes after injury (FIG. 1)): dose-dependent manner | leakage of Evan's blue dye into the brain tissue (closure of the blood brain barrier) ([1]; intravenously 30 minutes after injury, vs vehicle control (FIG. 1)): reduced leakage | functional outcome of the injured animals (motor, cognitive and behavioural outcomes) [2]: significantly improved | mortality [2]: significant reduction | time to normal physiological (spontaneous breathing) and behavioural (feeding and grooming) responses after treatment [3]: ≤ 60 minutes | functional outcome of the animals ([3]; i.v. 30 minutes after the insult): significantly improved | expression of IL-1β mRNA in brain tissue with respect to non-injured animals (IL-1β mRNA): no significant differences
